{"source": "patent US8354410B2", "about": "(Bristol-Meyers Squibb Company, priority 2010, dated 2013)", "key": {"HCV NS5B": {"biological_target": "T1, HCV NS5B (Hepatitis C virus genotype 1b, UniProt Q9WMX2)", "T1 construct": "The protein was expressed with an 18 amino acid C-terminal truncation to enhance the solubility; made in house; host or cells: E. coli BL21(DE3)", "T1 sequence (Q9WMX2 2420-2992)": "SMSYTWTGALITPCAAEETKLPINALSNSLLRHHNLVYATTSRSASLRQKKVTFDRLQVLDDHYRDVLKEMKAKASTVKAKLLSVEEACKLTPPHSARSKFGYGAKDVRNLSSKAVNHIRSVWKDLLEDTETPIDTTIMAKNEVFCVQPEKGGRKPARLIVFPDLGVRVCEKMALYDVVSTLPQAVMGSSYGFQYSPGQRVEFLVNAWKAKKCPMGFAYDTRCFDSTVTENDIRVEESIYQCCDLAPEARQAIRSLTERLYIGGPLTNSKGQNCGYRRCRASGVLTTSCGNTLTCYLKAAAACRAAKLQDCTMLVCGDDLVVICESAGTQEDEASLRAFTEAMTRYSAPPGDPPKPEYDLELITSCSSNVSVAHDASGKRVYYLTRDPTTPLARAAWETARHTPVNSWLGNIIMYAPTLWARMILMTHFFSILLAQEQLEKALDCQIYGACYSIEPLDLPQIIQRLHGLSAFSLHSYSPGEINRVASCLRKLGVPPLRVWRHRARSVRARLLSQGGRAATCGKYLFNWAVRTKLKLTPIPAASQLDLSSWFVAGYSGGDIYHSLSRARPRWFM", "assay": "HCV NS5B RdRp enzyme assay", "format": "biochemical", "settings": "HCV NS5B RdRp genotype 1b; standard or modified assay not specified", "procedure": "HCV NS5B RdRp cloning, expression, and purification. The cDNA encoding the NS5B protein of HCV, genotype 1b, was cloned into the pET21a expression vector. The protein was expressed with an 18 amino acid C-terminal truncation to enhance the solubility. The E. coli competent cell line BL21(DE3) was used for expression of the protein. Cultures were grown at 37° C. for ˜4 hours until the cultures reached an optical density of 2.0 at 600 nm. The cultures were cooled to 20° C. and induced with 1 mM IPTG. Fresh ampicillin was added to a final concentration of 50 μg/ml and the cells were grown overnight at 20° C.\nCell pellets (3 L) were lysed for purification to yield 15-24 mgs of purified NS5B. The lysis buffer consisted of 20 mM Tris-HCl, pH 7.4, 500 mM NaCl, 0.5% triton X-100, 1 mM DTT, 1 mM EDTA, 20% glycerol, 0.5 mg/ml lysozyme, 10 mM MgCl2, 15 ug/ml deoxyribonuclease I, and Complete TM protease inhibitor tablets (Roche). After addition of the lysis buffer, frozen cell pellets were resuspended using a tissue homogenizer. To reduce the viscosity of the sample, aliquots of the lysate were sonicated on ice using a microtip attached to a Branson sonicator. The sonicated lysate was centrifuged at 100,000×g for 1 hr at 4° C. and filtered through a 0.2 μm filter unit (Corning).\nThe protein was purified using three sequential chromatography steps: Heparin sepharose CL-6B, polyU sepharose 4B, and Hitrap SP sepharose (Pharmacia). The chromatography buffers were identical to the lysis buffer but contained no lysozyme, deoxyribonuclease I, MgCl2 or protease inhibitor and the NaCl concentration of the buffer was adjusted according to the requirements for charging the protein onto the column. Each column was eluted with a NaCl gradient which varied in length from 5-50 column volumes depending on the column type. After the final chromatography step, the resulting purity of the enzyme is >90% based on SDS-PAGE analysis. The enzyme was aliquoted and stored at −80° C.\nStandard HCV NS5B RdRp enzyme assay. HCV RdRp genotype 1b assays were run in a final volume of 60 μl in 96 well plates (Costar 3912). The assay buffer is composed of 20 mM Hepes, pH 7.5, 2.5 mM KCl, 2.5 mM MgCl2, 1 mM DTT, 1.6 U RNAse inhibitor (Promega N2515), 0.1 mg/ml BSA (Promega R3961), and 2% glycerol. All compounds were serially diluted (3-fold) in DMSO and diluted further in water such that the final concentration of DMSO in the assay was 2%. HCV RdRp genotype 1b enzyme was used at a final concentration of 28 nM. A polyA template was used at 6 nM, and a biotinylated oligo-dT12 primer was used at 180 nM final concentration. Template was obtained commercially (Amersham 27-4110). Biotinylated primer was prepared by Sigma Genosys. 3H-UTP was used at 0.6 μCi (0.29 μM total UTP). Reactions were initiated by the addition of enzyme, incubated at 30° C. for 60 min, and stopped by adding 25 μl of 50 mM EDTA containing SPA beads (4 μg/μl, Amersham RPNQ 0007). Plates were read on a Packard Top Count NXT after >1 hr incubation at room temperature.\nModified HCV NS5B RdRp enzyme assay. A modified enzyme assay was performed essentially as described for the standard enzyme assay except for the following: The biotinylated oligo dT12 primer was precaptured on streptavidin-coated SPA beads by mixing primer and beads in assay buffer and incubating at room temperature for one hour. Unbound primer was removed after centrifugation. The primer-bound beads were resuspended in 20 mM Hepes buffer, pH 7.5 and used in the assay at final concentrations of 20 nM primer and 0.67 μg/μl beads. Order of addition in the assay: enzyme (14 nM) was added to diluted compound followed by the addition of a mixture of template (0.2 nM), 3H-UTP (0.6 μCi, 0.29 μM), and primer-bound beads, to initiate the reaction; concentrations given are final. Reactions were allowed to proceed for 4 hours at 30° C.\nIC50 values for compounds were determined using seven different [I]. […]"}, "HCV replicon": {"tested_on": "HCV replicon", "assay": "HCV replicon assay (FRET / luciferase reporter)", "format": "cell-based, HCV (HUH-7 cells)", "settings": "Hepatitis C virus; HCV replicon cells", "description": "FRET Assay Preparation. To perform the HCV FRET screening assay, 96-well cell culture plates were used. The FRET peptide (Anaspec, Inc.) (Taliani et al., Anal. Biochem. 1996, 240, 60-67) contains a fluorescence donor, EDANS, near one end of the peptide and an acceptor, DABCYL, near the other end. The fluorescence of the peptide is quenched by […] resonance energy transfer (RET) between the donor and the acceptor, but as the NS3 protease cleaves the peptide the products are released from RET quenching and the fluorescence of the donor becomes apparent. The assay reagent was made as follows: 5× cell Luciferase cell culture lysis reagent from Promega (#E153A) diluted to 1× with dH2O, NaCl added to 150 mM final, the FRET peptide diluted to 20 μM final from a 2 mM stock.\nTo prepare plates, HCV replicon cells, with or without a Renilla luciferase reporter gene, were trypsinized and placed into each well of a 96-well plate with titrated test compounds added in columns 3 through 12; columns 1 and 2 contained a control compound (HCV protease inhibitor), and the bottom row contained cells without compound. The plates were then placed in a CO2 incubator at 37° C.\nAssays. Subsequent to addition of the test compounds described above (FRET Assay Preparation), at various times the plate was removed and Alamar blue solution (Trek Diagnostics, #00-100) was added per well as a measure of cellular toxicity. After reading in a Cytoflour 4000 instrument (PE Biosystems), plates were rinsed with PBS and then used for FRET assay by the addition of 30 ul of the FRET peptide assay reagent described above (FRET Assay Preparation) per well. The plate was then placed into the Cytoflour 4000 instrument which had been set to 340 excite/490 emission, automatic mode for 20 cycles and the plate read in a kinetic mode. Typically, the signal to noise using an endpoint analysis after the reads was at least three-fold. Alternatively, after Alamar blue reading, plates were rinsed with PBS, 50 ul of DMEM (high glucose) without phenol red was added and plates were then used for luciferase assay using the Promega Dual-Glo Luciferase Assay System.\nCompound analysis was determined by quantification of the relative HCV replicon inhibition and the relative cytotoxicity values. To calculate cytoxicity values, the average Alamar Blue fluorescence signals from the control wells were set as 100% non-toxic. The individual signals in each of the compound test wells were then divided by the average control signal and multiplied by 100% to determine […]. To calculate the HCV replicon inhibition values, an average background value was obtained from the two wells containing the highest amount of HCV protease inhibitor at the end of the assay period. These numbers were similar to those obtained from naïve Huh-7 cells.\nThe background numbers were then subtracted from the average signal obtained from the control wells and this number was used as 100% activity. The individual signals in each of the compound test wells were then divided by the averaged control values after background subtraction and multiplied by 100% to determine percent activity. EC50 values for a protease inhibitor titration were calculated as the concentration which caused a 50% reduction in FRET or luciferase activity. The two numbers generated for the compound plate, percent cytoxicity and percent activity were used to determine compounds of interest for further analysis.\nThe HCV replicon luciferase assay was developed to monitor the inhibitory effects of compounds described in the disclosure on HCV viral replication. Utilization of a replicon luciferase reporter assay was first described by Krieger et al (Krieger N, Lohmann V, and Bartenschlager R, J. Virol. 75(10):4614-4624 (2001)). HUH-7 cells, constitutively expressing the HCV replicon, were grown in Dulbecco's Modified Eagle Media (DMEM) (Gibco-BRL) containing 10% Fetal calf serum (FCS) (Sigma) and 1 mg/ml G418 (Gibco-BRL). […]"}, "HCV": {"tested_on": "HCV", "settings": "cited from earlier work"}}}
{"molecule": "CNC(=O)c1c(-c2ccc(F)cc2)oc2ccc(-c3cc(C(=O)NC4(c5ccc6cnccc6n5)CC4)c(OC)cc3C)c(F)c12", "note": "[5-(5-(1-(1,6-naphthyridin-2-yl)cyclopropylcarbamoyl)-4-methoxy-2-methylphenyl)-4-fluoro-2-(4-fluorophenyl)-N-methylbenzofuran-3-carboxamide]", "values": [{"measurement": "IC50", "setting": "HCV NS5B", "result": 100, "unit": "nM"}, {"measurement": "EC50", "setting": "HCV replicon", "result": 9, "unit": "nM"}]}
{"molecule": "CNC(=O)c1c(-c2ccc(F)cc2)oc2ccc(-c3cc(C(=O)NC4(c5ccc6ccncc6n5)CC4)c(OC)cc3C)c(F)c12", "note": "[5-(5-(1-(1,7-naphthyridin-2-yl)cyclopropylcarbamoyl)-4-methoxy-2-methylphenyl)-4-fluoro-2-(4-fluorophenyl)-N-methylbenzofuran-3-carboxamide]", "values": [{"measurement": "IC50", "setting": "HCV NS5B", "result": 30, "unit": "nM"}, {"measurement": "EC50", "setting": "HCV replicon", "result": 6, "unit": "nM"}]}
{"molecule": "CNC(=O)c1c(-c2ccc(F)cc2)oc2ccc(-c3cc(C(=O)N[C@H](C)c4nc5cnccc5o4)cc(F)c3C)c(F)c12", "note": "[5-(5-(1-(1H-imidazo[4,5-o]pyridin-2-yl)cyclopropylcarbamoyl)-2-methylphenyl)-4-fluoro-2-(4-fluorophenyl)-N-methylbenzofuran-3-carboxamide]", "values": [{"measurement": "IC50", "setting": "HCV NS5B", "result": 30, "unit": "nM"}, {"measurement": "EC50", "setting": "HCV replicon", "result": 40, "unit": "nM"}]}
{"molecule": "CNC(=O)c1c(-c2ccc(F)cc2)oc2cc(N(CCO)S(C)(=O)=O)c(C3CC3)cc12", "note": "[HCV-796]", "values": [{"measurement": "hepatic toxicity", "setting": "HCV; extended dosing of the combination regimens", "result": "hepatic toxicity observed"}, {"measurement": "HCV RNA levels in patients", "setting": "HCV; patients, single agent: transient decrease then rebound, more robust drop with interferon and ribavirin", "result": "ability to reduce HCV RNA levels in patients"}]}
{"molecule": "alpha-interferon and ribavirin", "values": [{"measurement": "sustained efficacy", "setting": "HCV; combination therapy (Poynard et al. 1998)", "result": "40 % of patients"}]}
